In patent US8486921B2, “Synthesis of tetracyclines and analogues thereof” (President and Fellows of Harvard College, priority 2006, dated 2013):

Test system: Gram-positive strains
Assay: Whole-cell antibacterial MIC assay (NCCLS serial dilution), Gram-positive strains
Format: cell-based
Conditions: each of the Gram-positive strains examined, including strains with resistance to tetracycline, methicillin, and vancomycin
Protocol: The efficiencies of the synthetic sequences have allowed for the preparation of sufficient quantities of each tetracycline analog for antibacterial testing using standard serial-dilution techniques (5-20 mg amounts). Minimum inhibitory concentrations (MICs) are reported for each analog in whole-cell antimicrobial assays using five Gram-positive and five Gram-negative organisms (FIG. 18).
Whole-cell antibacterial activity was determined according to methods recommended by the NCCLS-(National Committee for Clinical Laboratory Standards. 2002. Methods for dilution antimicrobial susceptibility tests for bacteria that grow aerobically: approved standard-fifth edition. NCCLS document M100-S12. National Committee for Clinical Laboratory Standards. Wayne, Pa.; incorporated herein by reference). Test compounds were dissolved in dimethyl sulfoxide (DMSO) and the resulting solutions were diluted in water (1:10) to produce stock solutions with a final concentration of 256 μg tetracycline analog per mL. In a 96-well microtiter plate, 50-μL aliquots of stock solutions were diluted serially into cation-adjusted Mueller-Hinton broth (MHB; Becton-Dickinson, Cockeysville, Md.). Test organisms (50 μL aliquots of solutions […]) were then added to the appropriate wells of the microtiter plate. […] The MIC was the lowest concentration of compound determined to inhibit visible growth. […]

## CN(C)[C@@H]1C(O)=C(C(N)=O)C(=O)[C@@]2(O)C(O)=C3C(=O)c4c(cc5ccccc5c4O)C[C@H]3C[C@@H]12 [compound 6]
  antibacterial activity (MIC) compared with tetracycline: activity equal to or greater than tetracycline
